Data reported in patent US10227331B2 (priority 2015, dated 2019).

What was measured:
IMP-1 = IMP-1 (Serratia marcescens, UniProt P52699); test: biochemical; type: biochemical; conditions: CCF2-FA substrate, 2 hours at 25° C; read-out: IMP-1 IC50
How it was run: (§1)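 Class B activity is measured in the presence of compound by fluorescence with CCF2-FA after a 2-hour incubation at 25° C. IC50 is taken from a 4-parameter fit of semi-logarithmic dose-response data.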

NDM-1 = NDM-1 (Klebsiella pneumoniae, UniProt C7C422); test: biochemical; type: biochemical; conditions: CCF2-FA substrate, 2 hours at 25° C; read-out: NDM-1 IC50
Chain of NDM-1 (C7C422 whole entry, looked up, species assumed): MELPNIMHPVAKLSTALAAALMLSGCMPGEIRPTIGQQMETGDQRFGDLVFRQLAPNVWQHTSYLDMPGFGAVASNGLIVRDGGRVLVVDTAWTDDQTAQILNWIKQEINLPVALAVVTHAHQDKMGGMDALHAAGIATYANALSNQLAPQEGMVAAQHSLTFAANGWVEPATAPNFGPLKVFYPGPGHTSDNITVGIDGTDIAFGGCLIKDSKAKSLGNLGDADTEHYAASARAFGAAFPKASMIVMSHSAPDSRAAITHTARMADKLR
How it was run: as §1

[1] = tested on: Serratia marcescens expressing IMP-1 (CL5741); type: cell-based; conditions: with imipenem 1 μg/ml, 95% inhibition of bacterial growth; for Serratia marcescens MITC95: IMP-1 (CL5741)
How it was run: (§2)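 Clinical strains grown overnight on blood agar, then diluted 1:100 in 1.1× CAMHB and exposed to test compound with imipenem at 1 μg/ml. Incubation was 22–24 h at 35° C; growth was read by absorbance to find the compound concentration restoring imipenem susceptibility.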

[2] = tested on: Klebsiella pneumoniae expressing VIM-1 (IHMA599644); type: cell-based; conditions: with imipenem 1 μg/ml, 95% inhibition of bacterial growth; for Klebsiella pneumoniae MITC95: VIM-1 (IHMA599644)
How it was run: as §2

[3] = tested on: Escherichia coli expressing NDM-1 (CLB30005, CLB30016); type: cell-based; conditions: with imipenem 1 μg/ml, 95% inhibition of bacterial growth; for Escherichia coli MITC95: NDM-1 (CLB30016)
How it was run: as §2

[4] = tested on: P. aeruginosa expressing IMP-1, efflux+ (MB9798); type: cell-based, Pseudomonas aeruginosa; conditions: for P. aeruginosa expressing IMP-1, efflux+ (MB9798) MITC95: imipenem at 2 μg/mL, in the presence of a class A, C, D serine β-lactamase inhibitor closely related to relebactam; for Efflux ratio: ratio MITC95 PA_9798/MITC95 PA_9799
From the text: (§3) The strain background is Pseudomonas aeruginosa PAO1.

[5] = tested on: P. aeruginosa expressing IMP-1, efflux− (MB9799); test: Efflux: concentration of MBL inhibitor which restores susceptibility to imipenem; type: cell-based, Pseudomonas aeruginosa; conditions: imipenem at 2 μg/mL, in the presence of a class A, C, D serine β-lactamase inhibitor closely related to relebactam
From the text: as §3

VIM-1 = VIM-1 (Pseudomonas aeruginosa (strain ATCC 15692 / DSM 22644 / CIP 104116 / JCM 14847 / LMG 12228 / 1C / PRS 101 / PAO1), UniProt A0A0F7KYQ8); test: biochemical; conditions: CCF2-FA substrate, 2 hours at 25° C
How it was run: as §1

Chain of IMP-1 (P52699 whole entry, looked up, species assumed): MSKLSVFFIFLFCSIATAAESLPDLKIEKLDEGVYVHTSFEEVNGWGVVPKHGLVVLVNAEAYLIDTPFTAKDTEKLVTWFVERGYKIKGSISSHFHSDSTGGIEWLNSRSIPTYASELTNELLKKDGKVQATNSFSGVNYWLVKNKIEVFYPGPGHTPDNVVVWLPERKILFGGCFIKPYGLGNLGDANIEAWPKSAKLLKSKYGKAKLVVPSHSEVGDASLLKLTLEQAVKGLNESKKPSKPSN

| SMILES | IC50 (IMP-1) [nM] | IC50 (NDM-1) [nM] | Serratia marcescens MITC95 [1] [µM] | Klebsiella pneumoniae MITC95 [2] [µM] | Escherichia coli MITC95 [3] [µM] | P. aeruginosa expressing IMP-1, efflux+ (MB9798) MITC95 [4] [µM] | Efflux ratio [4] | P. aeruginosa expressing IMP-1, efflux− (MB9799) MITC95 [5] [µM] | IC50 (VIM-1) [nM] | Serratia marcescens expressing IMP-1 (CL5741) MITC95 [1] [µM] | Klebsiella pneumoniae expressing VIM-1 (IHMA599644) MITC95 [2] [µM] | Escherichia coli expressing NDM-1 (CLB30016) MITC95 [3] [µM] |
| --- | --- | --- | --- | --- | --- | --- | --- | --- | --- | --- | --- | --- |
| NCCS(=O)(=O)c1ccc(-c2cnc(N)c(C(N)=O)c2)c(-c2nn[nH]n2)c1S(N)(=O)=O [Example 335, 2-Amino-5-(4-((2-aminoethyl)sulfonyl)-3-sulfamoyl-2-(2H-tetrazol-5-yl)phenyl)nicotinamide] | 8.9 | 3.22 | 1.563 | 3.125 | 1.563 | 12.5 | 8.00 | 1.563 | 1.23 |  |  |  |
| Cn1c(N)nc2cccc(-c3ccc(S(=O)(=O)C4CNC4)c(S(N)(=O)=O)c3-c3nn[nH]n3)c21 [Example 19, 3-(2-Amino-1-methyl-1H-benzo[d]imidazol-7-yl)-6-(azetidin-3-ylsulfonyl)-2-(2H-tetrazol-5-yl)benzenesulfonamide] | 2.5 | 0.108 |  |  |  | 6.25 | 4.00 | 1.563 | 0.153 | 1.563 | 1.563 | 0.7813 |
| NCCS(=O)(=O)c1ccc(-c2cnc(N)c(F)c2)c(-c2nnn[nH]2)c1S(N)(=O)=O.O=C(O)C(F)(F)F [Example 168, 2-((4-(6-amino-5-fluoropyridin-3-yl)-2-sulfamoyl-3-(1H-tetrazol-5-yl)phenyl)sulfonyl)ethanaminium 2,2,2-trifluoroacetate] | 2.02 | 2.5 |  |  |  | 6.25 | 4.00 | 1.563 | 0.515 | 3.125 | 6.25 | 1.563 |
| Nc1nc2cccc(-c3ccc([S+]([O-])C4CCNCC4)c(S(N)(=O)=O)c3-c3nn[nH]n3)c2[nH]1 (stereo not drawn) [Example 14, 3-(2-amino-3H-benzo[d]imidazol-4-yl)-6-(piperidin-4-ylsulfinyl)-2-(2H-tetrazol-5-yl)benzenesulfonamide] | 23.9 | 0.292 |  |  |  | 6.25 | 4.00 | 1.563 | 0.868 | 3.125 | 3.125 | 6.25 |
| Cn1nnc2ccc(-c3ccc(S(=O)(=O)C4CNC4)c(S(N)(=O)=O)c3-c3nnn[nH]3)cc21.O=C(O)C(F)(F)F [Example 119, 3-((4-(1-methyl-1H-benzo[d][1,2,3]triazol-6-yl)-2-sulfamoyl-3-(1H-tetrazol-5-yl)phenyl)sulfonyl)azetidin-1-ium 2,2,2-trifluoroacetate] | 5.74 | 1.8 |  |  |  | 100 | 63.98 | 1.563 | 0.506 | 6.25 | 6.25 | 6.25 |
| Nc1ncccc1-c1cc(-c2ccc(S(=O)(=O)C3CNC3)c(S(N)(=O)=O)c2-c2nnn[nH]2)ccn1 [Example 310, 3-(2′-Amino-[2,3′-bipyridin]-4-yl)-6-(azetidin-3-ylsulfonyl)-2-(1H-tetrazol-5-yl)benzenesulfonamide] | 2.3 | 1.04 | 1.563 | 3.125 | 1.563 | 25 | 15.99 | 1.563 | 0.319 |  |  |  |
| CC(N)CS(=O)(=O)c1ccc(-c2cccc3sc(N)nc23)c(-c2nn[nH]n2)c1S(N)(=O)=O (stereo not drawn) [Example 269, 3-(2-aminobenzo[d]thiazol-4-yl)-6-(2-aminopropylsulfonyl)-2-(2H-tetrazol-5-yl)benzenesulfonamide] | 0.152 | 0.116 | 1.563 | 3.125 | 1.563 | 0.7813 | 1.00 | 0.7813 | 0.176 |  |  |  |
| NS(=O)(=O)c1c(SC2CNC2)ccc(-c2cccc3nccn23)c1-c1nnn[nH]1 [Example 63, 6-(Azetidin-3-ylthio)-3-(imidazo[1,2-a]pyridin-5-yl)-2-(1H-tetrazol-5-yl)benzenesulfonamide] | 125 | 5.91 |  |  |  | 50 | 28.07 | 1.781 | 30.5 | 3.125 | 3.125 | 1 |
| NCCS(=O)(=O)c1ccc(-c2cccc3[nH]c(C(=O)O)nc23)c(-c2nn[nH]n2)c1S(N)(=O)=O [Example 91, 4-(4-((2-aminoethyl)sulfonyl)-3-sulfamoyl-2-(2H-tetrazol-5-yl)phenyl)-1H-benzo[d]imidazole-2-carboxylic Acid] | 0.386 | 0.189 |  |  |  | 0.7813 | 1.00 | 0.7813 | 0.239 | 1.563 | 2.344 | 1.172 |
| NCCS(=O)(=O)c1ccc(-c2ccc3c(c2)C(=O)NC3)c(-c2nnn[nH]2)c1S(N)(=O)=O.O=C(O)C(F)(F)F [Example 140, 2-((4-(3-oxoisoindolin-5-yl)-2-sulfamoyl-3-(1H-tetrazol-5-yl)phenyl)sulfonyl)ethanaminium 2,2,2-trifluoroacetate] | 0.488 | 0.844 |  |  |  | 3.125 | 4.00 | 0.7813 | 0.223 | 1.563 | 1.563 | 1.563 |
| N#Cc1cc(-c2ccc(S(=O)(=O)C3CNC3)c(S(N)(=O)=O)c2-c2nnn[nH]2)c2[nH]c(N)nc2c1 [Example 261, 3-(2-amino-5-cyano-1H-benzo[d]imidazol-7-yl)-6-(azetidin-3-ylsulfonyl)-2-(1H-tetrazol-5-yl) benzenesulfonamide] | 1.15 | 0.4 | 6.25 | 12.5 | 6.25 | 6.25 | 1.00 | 6.25 | 0.734 |  |  |  |
| CNC(=O)c1ccc(-c2ccc(S(=O)(=O)CCN)c(S(N)(=O)=O)c2-c2nnn[nH]2)cn1.O=C(O)C(F)(F)F [Example 139, 2-((4-(6-(methylcarbamoyl)pyridin-3-yl)-2-sulfamoyl-3-(1H-tetrazol-5-yl)phenyl)sulfonyl)ethanaminium 2,2,2-trifluoroacetate] | 3.32 | 3.96 |  |  |  | 12.5 | 8.00 | 1.563 | 2.04 | 3.125 | 6.25 | 1.563 |
| NCCS(=O)(=O)c1ccc(-c2cccc3nc(N)sc23)c(-c2nn[nH]n2)c1S(N)(=O)=O [Example 78, 3-(2-aminobenzo[d]thiazol-7-yl)-6-(2-aminoethylsulfonyl)-2-(2H-tetrazol-5-yl)benzenesulfonamide] | 0.441 | 0.0576 |  |  |  | 1.172 | 1.50 | 0.7813 | 0.136 | 1.172 | 2.344 | 0.7813 |
